# Patent US20210137941A1 (ZARODEX THERAPEUTICS LIMITED, priority 2018, published 2021)
# Where “and” joins values, the source holds several entries; their conditions need not be identical. Identical values can stand only once. Entries after “also recorded” stand apart in the source; their conditions may differ. Like-named read-outs stand apart in the source and are kept apart here.
# Assays:
# [1] = system: Immunoglobulin levels (IgG, IgA and IgM); assay: First observational study: serum immunoglobulin levels by nephelometry, clozapine vs clozapine-naive patients; format: in vivo, human
# [2] = system: specific antibody titres against Haemophilus influenzae, Tetanus and Pneumococcal capsular polysaccharide; parameters: species or system human; settings: in vivo
# [3] = system: IgG to Haemophilus influenza B, Pneumococcus and Tetanus; settings: human, in vivo
# [4] = system: circulating total IgG, IgA, IgM and pneumococcus IgG; assay: Second observational study (interim analysis): circulating immunoglobulins; format: in vivo, human; settings: interim data
# [5] = system: bone marrow B cell subsets; assay: Wild type mouse study: bone marrow B cell immunophenotyping by flow cytometry; format: in vivo, C57BL/6 mice
# [6] = system: circulating immunoglobulins; assay: Wild type mouse study: circulating immunoglobulin profile by ELISA; format: in vivo, C57BL/6 mice; settings: FIG. 24
# [7] = system: collagen-induced arthritis (CIA); assay: Mouse collagen-induced arthritis (CIA) model: onset, incidence, clinical score, paw swelling; format: in vivo, DBA/1 mice
# Description: Adult (age 13-15 weeks) DBA/1 male mice were purchased from Envigo (Horst, Netherlands). Mice were housed at a 21° C.±2° C. in individually ventilated cages with free access to food and water and a 12-h light/dark cycle (7 am/7 pm). Mice were acclimatised for 1 week on arrival prior to initiating experiments.
# (§1) All experiments were approved by the Clinical Medicine Animal Welfare and Ethical Review Body (AWERB) and by the UK Home Office.
# DBA/1 mice were immunised with bovine type II collagen in CFA and monitored daily for onset of arthritis. […] Controls received vehicle (saline) alone. Treatment of mice commenced in one experiment on day 1 after immunisation and in a second experiment on day 15 after immunisation. Clinical scores and paw-swelling were monitored for 10 days following onset of arthritis. A clinical scoring system was used as follows. Arthritis severity was scored by an experienced, non-blinded investigator as follows: 0=normal, 1=slight swelling and/or erythema, 2=pronounced swelling, 3=ankylosis. All four limbs were scored, giving a maximum possible score of 12 per animal.
# (§2) Data were analyzed by one-way ANOVA with Tukey's or Dunnett's multiple comparison test or two-way ANOVA with Tukey's multiple comparison test as appropriate. All calculations were made using GraphPad Prism software. A P value less than 0.05 was considered significant.
# [8] = system: anti-collagen IgG1 and IgG2a; assay: CIA model: serum anti-collagen immunoglobulin by ELISA; format: in vivo, DBA/1 mice; settings: FIG. 33
# Description: as §1
# At the end of the experimental period, mice were humanely euthanised and bled by cardiac puncture to obtain blood samples for serum separation, storage at −80° C. and subsequent measurement of specific anti-collagen immunoglobulin (IgG1 and IgG2a isotypes) by ELISA. In parallel, spleen and inguinal lymph nodes were harvested for evaluation of cellular composition across these compartments using multi-laser flow cytometric detection and analysis. Numbers of B cell subsets in spleen and lymph nodes were determined by FACS.
# as §2
# [9] = system: B cell subsets (class switched memory B cells, plasmablasts); settings: for CSMB after stopping clozapine: one patient, 24 months after clozapine cessation (from 1.58%)
# [10] = system: serum/plasma IgG, IgA, IgM; settings: cited from earlier work
# [11] = sub-group A: all diagnoses, all smoking, possible secondary causes not excluded, n=123
# [12] = sub-group A: all diagnoses, all smoking, possible secondary causes not excluded, n=123, listed as clozapine
# [13] = sub-group B: all diagnoses, all smoking, possible secondary causes excluded, n=94
# [14] = sub-group C: schizophrenia diagnoses only, secondary causes excluded, n=87
# [15] = sub-group D: smokers only, secondary causes excluded, n=57
# [16] = outpatients on clozapine at least five years (Lozano et al., 2016)
# [17] = six weeks clozapine treatment (Hinze-Selch et al., 1998)
smiles,measurement,setting,value
"CN1CCN(C2=Nc3cc(Cl)ccc3Nc3ccccc32)CC1 [Clozapine, clozapine]",% of patients with Serum IgM <0.3 g/L,"[1]; human, in vivo",12.3%
same,"concentrations/distribution of IgG, IgA and IgM vs clozapine-naive control group","[1]; human, in vivo",significantly reduced concentrations; also recorded: leftward shift
same,association of longer duration of therapy with serum IgG,"[1]; p 0.014, not observed with alternative antipsychotic drugs, FIG. 2",lower serum IgG levels
same,% of patients with Serum IgA <0.5 g/L (Reference range 0.8-4.0 g/L),[1]; [11],1.6%
same,% of patients with Serum IgA <0.6 g/L,[1]; [11],2.4%
same,% of patients with Serum IgA <0.7 g/L,[1]; [11],6.5%
same,% of patients with Serum IgA <0.8 g/L (below reference range),[1]; [11],13.0%
same,% of patients with Serum IgG <3 g/L (Reference range 6-16 g/L),[1]; [11],0.8%
same,% of patients with Serum IgG <4 g/L,[1]; [11],1.6%
same,% of patients with Serum IgG <5 g/L,[1]; [11],3.3%
same,% of patients with Serum IgG <6 g/L (below reference range),[1]; [11],9.8%
same,% of patients with Serum IgM <0.2 g/L (Reference range 0.5-1.9 g/L),[1]; [11],8.1%
same,% of patients with Serum IgM <0.3 g/L,[1]; [11],16.3%
same,% of patients with Serum IgM <0.4 g/L,[1]; [11],29.3%
same,% of patients with Serum IgM <0.5 g/L (below reference range),[1]; [11],38.2%
same,% of patients with Serum IgA <0.8 g/L (below reference range),[1]; [12],13.0% and 13.1%
same,% of patients with Serum IgG <6 g/L (below reference range),[1]; [12],9.8%
same,% of patients with Serum IgM <0.5 g/L (below reference range),[1]; [12],38.2%
same,% of patients with Serum IgA <0.5 g/L (Reference range 0.8-4.0 g/L),[1]; [13],2.1%
same,% of patients with Serum IgA <0.6 g/L,[1]; [13],2.1%
same,% of patients with Serum IgA <0.7 g/L,[1]; [13],6.4%
same,% of patients with Serum IgA <0.8 g/L (below reference range),[1]; [13],13.8%
same,% of patients with Serum IgG <3 g/L (Reference range 6-16 g/L),[1]; [13],1.1%
same,% of patients with Serum IgG <4 g/L,[1]; [13],1.1%
same,% of patients with Serum IgG <5 g/L,[1]; [13],2.1%
same,% of patients with Serum IgG <6 g/L (below reference range),[1]; [13],8.4%
same,% of patients with Serum IgM <0.2 g/L (Reference range 0.5-1.9 g/L),[1]; [13],5.3%
same,% of patients with Serum IgM <0.3 g/L,[1]; [13],12.8%
same,% of patients with Serum IgM <0.4 g/L,[1]; [13],26.6%
same,% of patients with Serum IgM <0.5 g/L (below reference range),[1]; [13],34.0%
same,% of patients with Serum IgA <0.5 g/L (Reference range 0.8-4.0 g/L),[1]; [14],2.3%
same,% of patients with Serum IgA <0.6 g/L,[1]; [14],3.5%
same,% of patients with Serum IgA <0.7 g/L,[1]; [14],6.9%
same,% of patients with Serum IgA <0.8 g/L (below reference range),[1]; [14],14.9%
same,% of patients with Serum IgG <3 g/L (Reference range 6-16 g/L),[1]; [14],1.2%
same,% of patients with Serum IgG <4 g/L,[1]; [14],1.2%
same,% of patients with Serum IgG <5 g/L,[1]; [14],2.3%
same,% of patients with Serum IgG <6 g/L (below reference range),[1]; [14],9.2%
same,% of patients with Serum IgM <0.2 g/L (Reference range 0.5-1.9 g/L),[1]; [14],5.8%
same,% of patients with Serum IgM <0.3 g/L,[1]; [14],12.6%
same,% of patients with Serum IgM <0.4 g/L,[1]; [14],27.6%
same,% of patients with Serum IgM <0.5 g/L (below reference range),[1]; [14],35.6%
same,% of patients with Serum IgA <0.5 g/L (Reference range 0.8-4.0 g/L),[1]; [15],3.5%
same,% of patients with Serum IgA <0.6 g/L,[1]; [15],3.5%
same,% of patients with Serum IgA <0.7 g/L,[1]; [15],3.5%
same,% of patients with Serum IgA <0.8 g/L (below reference range),[1]; [15],10.5%
same,% of patients with Serum IgG <3 g/L (Reference range 6-16 g/L),[1]; [15],1.8%
same,% of patients with Serum IgG <4 g/L,[1]; [15],1.8%
same,% of patients with Serum IgG <5 g/L,[1]; [15],1.8%
same,% of patients with Serum IgG <6 g/L (below reference range),[1]; [15],8.8%
same,% of patients with Serum IgM <0.2 g/L (Reference range 0.5-1.9 g/L),[1]; [15],1.78%
same,% of patients with Serum IgM <0.4 g/L,[1]; [15],26.3%
same,% of patients with Serum IgM <0.5 g/L (below reference range),[1]; [15],33.3%
same,% of patients with IgG-Haemophilus B <1.0 mcg/ml (below protective level),[2],51% and 51.2% and 51.1% and 49.4% and 50.9%
same,% of patients with IgG-Pneumococcus <35 mg/L,[2],39.0% and 38.3% and 37.9% and 45.6%
same,% of patients with IgG-Pneumococcus <50 mg/L (below protective level),[2],52.1% and 50.6% and 54.4%
same,% of patients with IgG-Tetanus <0.1 IU/ml (below protective level),[2],10.6% and 11.5% and 12.3%
same,IgM-Pneumococcus,[2],58.5 U/L and 59.8 U/L and 60.4 U/L and 61.6 U/L
same,Pneumococcal IgA level,[2],31 U/ml
same,Pneumococcal IgM level,[2],58.5 U/ml
same,pneumococcal IgA level,[2],31.0 U/L
same,individuals failing to develop a pneumococcal IgG response above 50 mg/L,[3],73%
same,individuals failing to exceed 0.1 IU/mL post-vaccination Tetanus-IgG level,[3],1/12
same,individuals failing to mount a Haemophilus-IgG response of at least 1 mcg/ml,[3],42%
same,patients with IgG to Haemophilus influenza B (HiB) <1 mcg/ml,[3],75%
same,patients with Pneumococcus-IgG <50 mg/L,[3],94%
same,patients with Tetanus-IgG <0.1 IU/mL,[3],38%
same,patients with impaired responses to vaccination,[3],10/11
same,"vaccine response, individual referred patients",[3],Failure to responds to; also recorded: Non-durable
same,"levels of circulating total IgG, IgA and IgM vs clozapine naive control",[4]; FIG. 6A-C,Significantly reduced levels
same,IgG antibodies against pneumococcus vs control,[4]; FIG. 7,trend to lower
same,pro-B cell fraction in bone marrow,"[5]; 10 mg/kg IP, 21 days, FIG. 18",without any change
same,proportion of pre-pro B cells in bone marrow,"[5]; 10 mg/kg IP, 21 days, FIG. 18",significant increase
same,reduction in the percentage of long-lived plasma cells in the bone marrow compared to control,"[5]; 5 and 10 mg/kg IP, 21 days, significant, FIG. 20",~30%
same,percentage of immature B cells in bone marrow,"[5]; IP 21 days, FIG. 19",reduction
same,overall B cells in the bone marrow,"[5]; any dose (2.5, 5, 10 mg/kg IP, 21 days), FIG. 18",No overall reduction
same,pre-B cells in bone marrow,"[5]; dose-dependent, significant vs control from 2.5 mg/kg, IP 21 days, FIG. 19",reduction
same,percentage of proliferating pre-B cells in bone marrow,"[5]; reaching significance for the 5 mg/kg dose, FIG. 19",diminished
same,other circulating immunoglobulin isotype classes,[6],No other isotype classes were affected
same,circulating IgA levels compared to control,"[6]; clozapine 5 and 10 mg/kg, haloperidol 1 mg/kg, IP 21 days",reduction
same,swelling of the first affected paw,"[7]; 10 mg/kg from day 1, FIG. 27",reduced swelling of the first affected paw
same,onset of arthritis post-immunisation,"[7]; 5 or 10 mg/kg IP daily from day 1 or day 15, FIG. 25, 26",significantly effective
same,incidence of CIA,[7]; FIG. 26,reduces the incidence
same,"onset of arthritis, treatment from day 1","[7]; both doses (5, 10 mg/kg) from day 1, FIG. 25, 26",extremely effective
same,overall clinical score,"[7]; both doses, administered from day 1, FIG. 27",reduced overall clinical score
same,total number of affected paws compared to vehicle control,"[7]; significant with dosing at D1, FIG. 28",reduced the total number of affected paws
same,serum anti-type II collagen IgG1 reduction,[8]; 10 mg/kg from day 15,reaching statistical significance
same,serum anti-type II collagen IgG2a,"[8]; 5 or 10 mg/kg from day 1 or day 15, single time point",no significant impact
same,serum anti-type II collagen IgG1,[8]; across all doses tested,nominal reductions
same,admitted to hospital with infection,clozapine group (vs 0.06 controls),0.12 per patient year
same,"Admission frequency in 12-month period, infection-related: admissions",clozapine-treated patients,15
same,"Admission frequency in 12-month period, infection-related: patients",clozapine-treated patients,10 patients
same,marginal zone B cell numbers vs healthy control,[9]; FIG. 3B,no significant difference
same,total B cell numbers vs CVID and healthy controls,[9]; FIG. 3B,similar
same,"CSMB (6.5-29.1%), individual referred patients","[9]; class switched memory B cells as % of CD19+ cells, one line per patient, listed as clozapine",1.58%
same,overall lymphopenia / B cell lymphopenia,"[9]; human, in vivo",no severe overall lymphopenia or B cell lymphopenia
same,CSMB after stopping clozapine,[9],CSMB rose to 2.77%
same,CSMB after stopping clozapine,[9]; listed as clozapine,2.77%
same,"mean percentage of CSMB, referred patients","[9]; reference range 6.5-29.1%, p<0.0001 vs healthy controls, FIG. 3A",1.87%
same,"IgA, IgG, absolute neutrophil count and white blood cell count vs control group",[10]; [16],no differences were found
same,mean plasma levels of IgM vs control group,[10]; [16],overall decrease
same,IgA or IgM concentrations,[10]; [17],no significant effect
same,serum concentrations of IgG,[10]; [17],significant increases
